# Measurements published in the supplement of paper PMC10307832.
# How the values were obtained:
# Assay in all cases: relative viability (nuclei count vs DMSO), 5 days (fraction); higher = more cells survive
# [1] = compound: C1=CC2=C(C=C(C(=C2N=C1)O)N=NC3=CC4=C(C=C3)C=C(C=C4)S(=O)(=O)O)S(=O)(=O)O + COc1cccc2cc(-c3nc([C@H]4CC[C@H](C(=O)O)CC4)n4ncnc(N)c34)[nH]c12 [OSI-027] (partner 0.5 µM)
# Outline: (§1)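 Values are medians from duplicate plates. Each reflects relative viability, defined as the nuclei count of treated wells over that of vehicle wells. Lung cancer cell lines in 1536-well plates were pin-tool dosed one day after seeding with one drug alone or with a fixed anchor-drug dose plus five library-drug doses (not always all listed) in √10 steps, then fixed, stained and imaged at 4× after 5 days.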
# [2] = compound: C1=CC2=C(C=C(C(=C2N=C1)O)N=NC3=CC4=C(C=C3)C=C(C=C4)S(=O)(=O)O)S(=O)(=O)O + C[C@]1(O)C[C@@H](c2nc(-c3ccc4ccc(-c5ccccc5)nc4c3)c3c(N)nccn32)C1 [Linsitinib] (partner 1 µM)
# Outline: as §1
# [3] = compound: C1=CC2=C(C=C(C(=C2N=C1)O)N=NC3=CC4=C(C=C3)C=C(C=C4)S(=O)(=O)O)S(=O)(=O)O + N=C(N)NC(=N)NCCc1ccccc1 [Phenformin] (partner 250 µM)
# Outline: as §1
# AT-7519 + Luminespib = compound: O=C(NC1CCNCC1)c1n[nH]cc1NC(=O)c1c(Cl)cccc1Cl [AT-7519] + CCNC(=O)c1noc(-c2cc(C(C)C)c(O)cc2O)c1-c1ccc(CN2CCOCC2)cc1 [Luminespib] (partner 0.01 µM)
# Outline: as §1
Cell Line,relative viability ([1]; first compound 0.08 µM),relative viability ([1]; first compound 0.253 µM),relative viability ([1]; first compound 0.8 µM),relative viability ([1]; first compound 2.53 µM),relative viability ([1]; first compound 8 µM),relative viability ([2]; first compound 0.08 µM),relative viability ([2]; first compound 0.253 µM),relative viability ([2]; first compound 0.8 µM),relative viability ([2]; first compound 2.53 µM),relative viability ([2]; first compound 8 µM),relative viability ([3]; first compound 0.08 µM),relative viability ([3]; first compound 0.253 µM),relative viability ([3]; first compound 0.8 µM),relative viability ([3]; first compound 2.53 µM),relative viability ([3]; first compound 8 µM),relative viability (AT-7519 + Luminespib; first compound 0.01 µM),relative viability (AT-7519 + Luminespib; first compound 0.03162 µM),relative viability (AT-7519 + Luminespib; first compound 0.3162 µM),relative viability (AT-7519 + Luminespib; first compound 1 µM)
NCI-H647,0.68,0.636,0.603,0.75,0.73,1.18,1.16,1.25,1.09,1.03,0.668,0.486,0.449,0.534,0.525,0.209,0.244,0.148,0.0855
SK-MES-1,0.69,0.633,0.588,0.681,0.661,1.17,1.01,1.05,1.04,1.06,0.731,0.674,0.672,0.692,0.652,0.847,0.734,0.593,0.33
NCI-H2085,0.901,0.716,0.716,0.974,0.842,1.06,0.927,0.978,0.821,0.892,0.795,0.743,0.687,0.752,0.755,0.528,0.405,0.489,0.515
SW 1573,0.734,0.622,0.61,0.463,0.401,0.779,0.734,0.816,0.875,0.75,0.406,0.478,0.418,0.3,0.296,0.223,0.203,0.149,0.126
NCI-H727,0.623,0.549,0.54,0.592,0.578,0.223,0.287,0.371,0.32,0.269,0.564,0.474,0.502,0.627,0.572,0.343,0.339,0.279,0.24
NCI-H441,0.504,0.638,0.461,0.66,0.588,0.51,0.527,0.458,0.551,0.354,0.918,0.761,0.731,0.947,0.821,0.424,0.367,0.313,0.242
LOU-NH91,0.736,0.751,0.713,0.668,0.733,0.991,0.988,0.957,0.973,0.891,0.644,0.74,0.706,0.712,0.607,0.356,0.312,0.351,0.281
NCI-H3122,1.09,0.919,0.899,0.856,0.922,0.998,0.962,0.969,1.01,0.96,0.369,0.379,0.378,0.418,0.323,0.104,0.0901,0.112,0.0695
NCI-H460,0.777,0.71,0.654,0.647,0.576,1.08,0.809,0.757,0.889,0.665,0.609,0.479,0.502,0.486,0.596,0.0297,0.0263,0.0291,0.0206
NCI-H650,0.546,0.511,0.499,0.494,0.293,0.652,0.755,0.884,0.769,0.576,0.413,0.42,0.437,0.49,0.309,0.75,0.7,0.838,0.611
NCI-H661,0.789,0.736,0.703,0.683,0.687,0.74,0.57,0.489,0.498,0.512,0.286,0.291,0.269,0.279,0.312,1.01,0.92,0.975,0.219
NCI-H1793,0.285,0.289,0.246,0.264,0.314,1.29,0.678,–,1.04,0.964,0.416,0.416,0.346,0.442,0.379,0.387,0.161,0.385,0.119
NCI-H1734,0.632,0.602,0.573,0.586,0.349,0.909,0.877,0.816,0.884,0.897,0.398,0.381,0.356,0.326,0.35,0.2,0.174,0.164,0.0866
LXF-289,0.84,0.733,0.745,0.809,0.788,1.05,0.977,0.957,1.02,0.917,0.54,0.511,0.509,0.485,0.507,0.557,0.724,0.697,0.5
H3255,0.544,0.633,0.595,0.567,0.655,0.95,0.899,0.948,1.04,0.911,0.348,0.377,0.416,0.394,0.421,0.902,0.936,0.938,0.974
201T,0.804,0.687,0.684,0.761,0.735,1.05,1.01,1,1.05,1.07,0.458,0.426,0.458,0.433,0.306,1.12,1.07,1.04,1.05
NCI-H2126,0.723,0.662,0.588,0.658,0.632,0.72,0.688,0.718,0.752,0.731,0.564,0.535,0.514,0.557,0.559,1.02,0.916,0.805,0.297
